Data from PubChem BioAssay AID330 (DTP/NCI, 2004).
Values joined by “and” are separate entries in the source; they are usually repeats but may differ in a detail not shown here. Equal values may be shown once. Inconclusive results and toxic doses are left out. Rule for the calls: active = survival T/C of 150% or more; inactive = T/C below 125% in these data.

Tested on: P388 leukemia ip, CD2F1 mice, survival T/C
Assay: NCI In Vivo Anticancer Drug Screen. Data for tumor model P388 Leukemia (intraperitoneal) in CD2F1 (CDF1) mice
Settings: endpoint: median survival time, higher = longer survival
Outline: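 Mice carrying the transplanted tumor received test compound or vehicle. Survival was recorded in each group, and the value is the treated-group measurement divided by that of the vehicle-treated control group.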

[1] = dose: 50.0 mg/kg/injection, schedule: Q01DX001 (ip), vehicle: Klucel (hydroxypropylcellulose) (HPC)
[2] = dose: 50.0 mg/kg/injection, schedule: Q01DX005 (ip), vehicle: Klucel (hydroxypropylcellulose) (HPC)
[3] = dose: 100.0 mg/kg/injection, schedule: Q01DX005 (ip), vehicle: Klucel (hydroxypropylcellulose) (HPC)
[4] = dose: 60.0 mg/kg/injection, schedule: Q01DX005 (ip), vehicle: saline with Tween-80
[5] = dose: 120.0 mg/kg/injection, schedule: Q01DX005 (ip), vehicle: saline with Tween-80
[6] = dose: 240.0 mg/kg/injection, schedule: Q01DX005 (ip), vehicle: saline with Tween-80
[7] = dose: 100.0 mg/kg/injection, schedule: Q04DX002 (ip), vehicle: Klucel (hydroxypropylcellulose) (HPC)
[8] = dose: 200.0 mg/kg/injection, schedule: Q04DX002 (ip), vehicle: Klucel (hydroxypropylcellulose) (HPC)
[9] = dose: 50.0 mg/kg/injection, schedule: Q01DX005 (ip), vehicle: saline with Tween-80
[10] = dose: 100.0 mg/kg/injection, schedule: Q01DX005 (ip), vehicle: saline with Tween-80
[11] = dose: 200.0 mg/kg/injection, schedule: Q01DX005 (ip), vehicle: saline with Tween-80
[12] = dose: 60.0 mg/kg/injection, schedule: Q01DX005 (ip), vehicle: Klucel (hydroxypropylcellulose) (HPC)
[13] = dose: 120.0 mg/kg/injection, schedule: Q01DX005 (ip), vehicle: Klucel (hydroxypropylcellulose) (HPC)
[14] = dose: 240.0 mg/kg/injection, schedule: Q01DX005 (ip), vehicle: Klucel (hydroxypropylcellulose) (HPC)

Measured: T/C

CC(O)c1cc(C(C)O)cc(C(C)O)c1 (centres undefined)
inactive: dose: 50.0 mg/kg/injection, schedule: Q01DX009 (ip), vehicle: saline 95 % of control | dose: 100.0 mg/kg/injection, schedule: Q01DX009 (ip), vehicle: saline 101 % of control | dose: 200.0 mg/kg/injection, schedule: Q01DX009 (ip), vehicle: saline 99 % of control

Cc1cc(C)n(-c2ccc(N(CCO)CCO)nn2)n1
inactive: dose: 75.0 mg/kg/injection, schedule: Q01DX005 (ip), vehicle: other 93 % of control | dose: 150.0 mg/kg/injection, schedule: Q01DX005 (ip), vehicle: other 88 % of control | dose: 250.0 mg/kg/injection, schedule: Q01DX005 (oral), vehicle: water 103 % of control | dose: 300.0 mg/kg/injection, schedule: Q01DX005 (ip), vehicle: other 93 % of control | dose: 500.0 mg/kg/injection, schedule: Q01DX005 (oral), vehicle: water 116 % of control | dose: 1000.0 mg/kg/injection, schedule: Q01DX005 (oral), vehicle: water 99 % of control

CCC(c1ccc(OCC(=O)N/N=C2/CCC3C4CCc5cc(O)ccc5C4CCC23C)cc1)C(CC)c1ccc(OCC(=O)N/N=C2\CCC3C4CCc5cc(O)ccc5C4CCC23C)cc1 (centres undefined)
inactive: dose: 25.0 mg/kg/injection, schedule: Q01DX001 (ip), vehicle: Klucel (hydroxypropylcellulose) (HPC) 98 % of control | [1] 90 % of control

CN(C)c1ccc2nc3ccc(=N)cc-3sc2c1
inactive: dose: 60.0 mg/kg/injection, schedule: Q01DX005 (ip), vehicle: saline 114 % of control | dose: 120.0 mg/kg/injection, schedule: Q01DX005 (ip), vehicle: saline 118 % of control

O=C(Nc1ccc(C(=O)Nc2cc(S(=O)(=O)O)cc3cc(S(=O)(=O)O)cc(O)c23)cc1)c1ccccc1
inactive: dose: 100.0 mg/kg/injection, schedule: Q01DX009 (ip), vehicle: saline with Tween-80 98 % of control | dose: 200.0 mg/kg/injection, schedule: Q01DX009 (ip), vehicle: saline with Tween-80 106 % of control | dose: 400.0 mg/kg/injection, schedule: Q01DX009 (ip), vehicle: saline with Tween-80 103 % of control

Nc1nc(N)c2nc(Sc3ccc(F)cc3)c(N)nc2n1
inactive: dose: 25.0 mg/kg/injection, schedule: Q01DX005 (ip), vehicle: Klucel (hydroxypropylcellulose) (HPC) 97 % of control | [2] 94 % of control | [3] 88 % of control

CCOC(=O)c1ccc(NC(=S)NC(=O)c2cccc(Br)c2)cc1
inactive: [4] 95 % of control | [5] 95 % of control | [6] 90 % of control

Cc1c(C)n(C)c(=S)n(C)c1=S
inactive: [2] 97 % of control | [3] 99 % of control | dose: 200.0 mg/kg/injection, schedule: Q01DX005 (ip), vehicle: Klucel (hydroxypropylcellulose) (HPC) 97 % of control

O=[N+]([O-])c1ccc(S(=O)C2CCCCC2Cl)c([N+](=O)[O-])c1 (centres undefined)
inactive: [7] 110 % of control | [8] 113 % of control

Cc1cc(=O)[nH]c(NNC(=O)c2ccc(Cl)cc2)n1
inactive: dose: 25.0 mg/kg/injection, schedule: Q01DX009 (ip), vehicle: distilled water + Tween-80 93 % of control | dose: 50.0 mg/kg/injection, schedule: Q01DX009 (ip), vehicle: distilled water + Tween-80 86 % of control | dose: 100.0 mg/kg/injection, schedule: Q01DX009 (ip), vehicle: distilled water + Tween-80 93 % of control | dose: 200.0 mg/kg/injection, schedule: Q01DX009 (ip), vehicle: distilled water + Tween-80 89 % of control | dose: 400.0 mg/kg/injection, schedule: Q01DX009 (ip), vehicle: distilled water + Tween-80 101 % of control

C=COC(=O)C(C)(CC)CC(C)C (centres undefined)
inactive: dose: 50.0 mg/kg/injection, schedule: Q01DX009 (ip), vehicle: other 115 % of control | dose: 100.0 mg/kg/injection, schedule: Q01DX009 (ip), vehicle: other 108 % of control

O=c1oc2ccccc2c(O)c1C=Nc1ccccc1
inactive: dose: 12.5 mg/kg/injection, schedule: Q01DX009 (ip), vehicle: saline with Tween-80 89 % of control | dose: 25.0 mg/kg/injection, schedule: Q01DX009 (ip), vehicle: saline with Tween-80 88 % of control

O=[N+]1C=CC=CC1=C1C=CC=CN1[O-]
inactive: [9] 104 % of control | [10] 110 % of control | [11] 103 % of control

CCNC(=O)c1c(C)nc(-c2ccccc2)nc1Nc1ccc(OCC)cc1
inactive: [4] 98 % of control | [5] 98 % of control | [6] 103 % of control

O=c1cc(-c2ccccc2)oc2c(O)c(O)cc(O)c12
inactive: dose: 50.0 mg/kg/injection, schedule: Q04DX003 (ip), vehicle: Klucel (hydroxypropylcellulose) (HPC) 105 % of control | dose: 100.0 mg/kg/injection, schedule: Q04DX003 (ip), vehicle: Klucel (hydroxypropylcellulose) (HPC) 104 % of control | dose: 200.0 mg/kg/injection, schedule: Q04DX003 (ip), vehicle: Klucel (hydroxypropylcellulose) (HPC) 100 % of control | dose: 400.0 mg/kg/injection, schedule: Q04DX003 (ip), vehicle: Klucel (hydroxypropylcellulose) (HPC) 92 % of control

CC(C)CCCCCCCCCCCCC(O)CC(=O)O (centres undefined)
inactive: dose: 8.75 mg/kg/injection, schedule: Q01DX005 (ip), vehicle: Klucel + Tween-80 92 % of control | dose: 17.5 mg/kg/injection, schedule: Q01DX005 (ip), vehicle: Klucel + Tween-80 86 % of control | dose: 35.0 mg/kg/injection, schedule: Q01DX005 (ip), vehicle: Klucel + Tween-80 95 % of control

CCOC(=O)c1ccc(NC(=O)Oc2ccc(NC(C)=O)cc2)cc1
inactive: [12] 98 % of control | [13] 92 % of control | [14] 92 % of control

O=C1C2=C(Nc3cc([N+](=O)[O-])ccc3N2)OC1c1c[nH]c2ccc(COc3ccccc3)cc12 (centres undefined)
inactive: [4] 93 % of control | [5] 94 % of control

Nc1ncnc2c1ncn2C1OC(COC2C(CO)OC(OC(C(=O)O)C(O)C(OP(=O)(O)O)C(O)C(=O)O)C(O)C2O)C(O)C1O (centres undefined)
inactive: dose: 0.25 mg/kg/injection, schedule: Q01DX009 (ip), vehicle: saline 96 % of control | dose: 0.5 mg/kg/injection, schedule: Q01DX009 (ip), vehicle: saline 105 % of control | dose: 1.0 mg/kg/injection, schedule: Q01DX009 (ip), vehicle: saline 96 % of control

Cc1nc2n(c1C(N)=O)CCS2
inactive: [1] 101 % of control | [12] 96 % of control | dose: 100.0 mg/kg/injection, schedule: Q01DX001 (ip), vehicle: Klucel (hydroxypropylcellulose) (HPC) 106 % of control | [7] 102 % of control | [13] 98 % of control | dose: 200.0 mg/kg/injection, schedule: Q01DX001 (ip), vehicle: Klucel (hydroxypropylcellulose) (HPC) 99 % of control | [8] 104 % of control | [14] 94 % of control

C/C(=C\C1C/C(=C/CCc2ccoc2)C(=O)O1)CCCc1ccoc1 (centres undefined)
inactive: dose: 25.0 mg/kg/injection, schedule: Q01DX009 (ip), vehicle: saline + alcohol 100 % of control | dose: 50.0 mg/kg/injection, schedule: Q01DX009 (ip), vehicle: saline + alcohol 107 % of control

CCCCCC(=O)C1C(c2ccc(C)cc2)CC(=O)C(CCCC)C1c1ccc(C)cc1 (centres undefined)
inactive: [9] 93 % of control | [10] 93 % of control | [11] 93 % of control

C1=C(C2CCCC3[C@@H]4C[C@@H](CN23)C2CCCCN2C4)CCC2[C@H]3C[C@H](CN12)C1CCCCN1C3 (some centres undefined)
inactive: dose: 3.75 mg/kg/injection, schedule: Q01DX005 (ip), vehicle: Klucel (hydroxypropylcellulose) (HPC) 106 % of control | dose: 7.5 mg/kg/injection, schedule: Q01DX005 (ip), vehicle: Klucel (hydroxypropylcellulose) (HPC) 104 % of control | dose: 15.0 mg/kg/injection, schedule: Q01DX005 (ip), vehicle: Klucel (hydroxypropylcellulose) (HPC) 110 % of control and 96 % of control | dose: 30.0 mg/kg/injection, schedule: Q01DX005 (ip), vehicle: Klucel (hydroxypropylcellulose) (HPC) 100 % of control
